# In US11814352B2, “Salts formed by 2-(1-acyloxy-n-pentyl) benzoic acid and basic amino acid or aminoguanidine, and preparation method and application thereof” (JIANGSU KANION PHARMACEUTICAL CO., LTD., priority 2018, dated 2023):
# Several values for one entry are separate records, joined by “and”; a condition that tells them apart may be missing. Equal entries are not always repeated. Marks after values point to notes of the source that are not given here.
# Legend:
# [1] = Solubility test (saturated solubility in water); format: physicochemical; details: 25±2° C.
# Protocol: Test method: 10 mg of a test sample (solid was ground into fine powder) was weighed and added to a certain amount of solvent at 25±2° C. (the temperature of a water bath is controlled at 25° C.), and the solution was shaken vigorously for 30 s every 5 min. The dissolution was observed within 30 min. When there were no visible solute particles or droplets, the test sample was regarded as completely dissolved.
# [2] = Pharmacokinetics of metabolites in rat plasma after intravenous injection of I1s; format: in vivo, SD male rats; details: metabolite in rat plasma after I1s 25 mg/kg tail vein; rats 1-3; listed as M4
# Protocol: (§1) 12 clean SD male rats, provided by Qinglongshan Animal Breeding Farm in Jiangning District, Nanjing. The production license number is SCXK (Jiangsu) 2017-0001. The body weight of the rats ranges from 180 to 220 g. The rats were used after being raised in the laboratory of an experimental animal center for 2 days after purchase, fasted for 12 hours before administration and 6 hours after administration, and were allowed to freely drink during the test period.
# (§2) The concentration of the original drugs and metabolites in the rat blood were determined by LC-MS/MS, and WinNonlin pharmacokinetics professional software and a statistical moment method were used for calculation to obtain the corresponding pharmacokinetic parameters.
# [3] = test system: ADP induced platelet aggregation; assay: In vitro anti-platelet aggregation, ADP induced (turbidimetry, PRP); format: cell-based, rabbits; details: read-out: IC50 ADP (10 μM); rabbit PRP, inducer ADP 10 μM, 37° C.
# Protocol: (§3) The animals were used for experiments after 1 week.
# (§4) The common carotid artery was separated, and a polyethylene tube was inserted into the common carotid artery to collect blood. […] The upper beige suspension was pipetted to obtain the platelet-rich plasma (PRP). […] The PRP was adjusted with the PPP to make the platelet count at 1×10^8/mL.
# (§5) 260 μL of platelet-rich plasma (PRP) was added into a turbidimetric tube. Then 10 μL of test compounds with different concentrations, positive control drugs or normal saline were separately added, and the plasma was incubated at 37° C. for 5 min. Then 30 μL of inducers were added in sequence. The final concentration of an inducer ADP is 10 μM, and the final concentration of an inducer AA is 1 mM. […] Inhibition rate of platelet aggregation (IRPA)=(platelet aggregation rate of the control group−platelet aggregation rate of the experimental group)/platelet aggregation rate of the control group×100%.
# [4] = Concentration of metabolites in rat brain tissue after intravenous injection of I1s; format: in vivo; details: for Concentration in brain tissue (single rats): listed as M4
# Protocol: as §1, §2
# [5] = as above; format: in vivo
# [6] = test system: arteriovenous bypass thrombosis in rats; assay: Effect on arteriovenous bypass thrombosis in rats; format: in vivo, SD rats; details: 10 mg/kg/day tail vein 7 days
# Protocol: Male SD rats, weighing 250-280 g, purchased from Beijing Vital River Laboratory Animal Technology Co., Ltd., raised in an SPF breeding environment with indoor temperature controlled at 23±2° C., and allowed to freely eat and drink. The total number of the animals is 64.
# Model group: injected with the same volume of normal saline (containing 1% DMSO) through the tail vein, and administered continuously for 7 days. The test was started 2 h after the last dose (n=8).
# The dose of all drugs was 10 mg/kg/day. The drugs were formulated into normal saline solutions containing 1% DMSO, and injected through the tail vein for 7 consecutive days. The test was started 2 hours after the last dose (n=8).
# The rats were intraperitoneally injected with a 3% pentobarbital sodium solution (30 mg/kg). After anesthesia, the rats were immobilized in the supine position, and a median cervical incision was made to separate the right common carotid artery and left external jugular vein. A 6 cm long suture was put in the middle of a polyethylene tube (the suture needs to be weighed before being put in the tube), and the polyethylene tube was filled with heparin saline (50 U/mL). The polyethylene tube was inserted into the separated blood vessels to make the artery and vein form a loop. After 15 min of circulation of the blood flow, the suture was taken out, and the suture with thrombus was collected and weighed immediately. Then, after the suture was dried at room temperature for 24 h, the dry weight was determined. The total weight minus the weight of the suture was the wet weight of the thrombus, and the dry weight minus the weight of the suture was the dry weight of the thrombus.
# [7] = molecular target: hERG potassium channel of CHO-hERG cells (Homo sapiens, UniProt Q12809); assay: Effect on hERG potassium channel (automatic patch clamp); details: CHO-hERG cells, maximum concentration
# MCAO rats = assay: Cerebral infarction, cerebral edema and nerve function of rats with focal cerebral ischemia (MCAO); format: in vivo, SD rats; details: rat, in vivo, iv, 10 mg/kg/day
# Protocol: The total number of the animals was 88.
# Sham operation group: equal volume of normal saline (containing 1% DMSO) (iv. 3 days), TTC, cerebral edema and neurological function score (n=8); […]
# The middle cerebral arteries of the rats were blocked by a suture-occluded method, and reperfused after 2 h. […] All drugs were formulated into normal saline solutions containing 1% DMSO for administration, and the duration of administration was controlled at approximately 1 min. […] 2 h after the last administration, the neurological defect scores were firstly obtained, and then the rats of each group were sacrificed. The whole brains were taken out and weighed (wet weight), TTC stained, and dried to determine the effects of the compounds on cerebral infarction and cerebral edema.
# 2 h after the last administration, the neurological defects of the animals were graded and scored by the Longa's method.
# After the neurobehavioral examination was completed, four coronal incisions were made on the whole brains of the rats on the optic chiasma and 2 mm anteroposterior positions of the optic chiasma. After the whole brains were cut into five slices, the brain slices were quickly placed in 5 ml of phosphate buffer solution containing 2% TTC, and incubated at 37° C. in the dark. In the incubation process, the brain slices were turned once every 5 min. After 10 min of incubation, the brain slices were taken out and pictures were taken with a digital camera (Olympus C-4000, Japan).
# The calculation formula of brain water content is as follows: Water content of brain tissue (%)=(wet weight of brain tissue−dry weight of brain tissue)/wet weight of brain tissue×100%; Cerebral edema rate (%)=water content of brain tissue of each group (%)−water content of brain tissue of sham operation group (%)/water content of brain tissue of sham operation group (%)×100%; Inhibition rate of cerebral edema (%)=(rate of cerebral edema of model group (%)−rate of cerebral edema of administration group (%))/rate of cerebral edema of model group (%)×100%.
# [8] = test system: AA induced platelet aggregation; assay: In vitro anti-platelet aggregation, AA induced (turbidimetry, PRP); format: cell-based, rabbits; details: read-out: IC50 AA (1 mM); rabbit PRP, inducer AA 1 mM, 37° C.
# Protocol: as §3, §4, §5
# [9] = 0.5 h after intravenous injection of I1s
# [10] = 1 h after intravenous injection of I1s
# [11] = 6 h after intravenous injection of I1s
# Sequence of hERG potassium channel of CHO-hERG cells (Q12809 whole entry): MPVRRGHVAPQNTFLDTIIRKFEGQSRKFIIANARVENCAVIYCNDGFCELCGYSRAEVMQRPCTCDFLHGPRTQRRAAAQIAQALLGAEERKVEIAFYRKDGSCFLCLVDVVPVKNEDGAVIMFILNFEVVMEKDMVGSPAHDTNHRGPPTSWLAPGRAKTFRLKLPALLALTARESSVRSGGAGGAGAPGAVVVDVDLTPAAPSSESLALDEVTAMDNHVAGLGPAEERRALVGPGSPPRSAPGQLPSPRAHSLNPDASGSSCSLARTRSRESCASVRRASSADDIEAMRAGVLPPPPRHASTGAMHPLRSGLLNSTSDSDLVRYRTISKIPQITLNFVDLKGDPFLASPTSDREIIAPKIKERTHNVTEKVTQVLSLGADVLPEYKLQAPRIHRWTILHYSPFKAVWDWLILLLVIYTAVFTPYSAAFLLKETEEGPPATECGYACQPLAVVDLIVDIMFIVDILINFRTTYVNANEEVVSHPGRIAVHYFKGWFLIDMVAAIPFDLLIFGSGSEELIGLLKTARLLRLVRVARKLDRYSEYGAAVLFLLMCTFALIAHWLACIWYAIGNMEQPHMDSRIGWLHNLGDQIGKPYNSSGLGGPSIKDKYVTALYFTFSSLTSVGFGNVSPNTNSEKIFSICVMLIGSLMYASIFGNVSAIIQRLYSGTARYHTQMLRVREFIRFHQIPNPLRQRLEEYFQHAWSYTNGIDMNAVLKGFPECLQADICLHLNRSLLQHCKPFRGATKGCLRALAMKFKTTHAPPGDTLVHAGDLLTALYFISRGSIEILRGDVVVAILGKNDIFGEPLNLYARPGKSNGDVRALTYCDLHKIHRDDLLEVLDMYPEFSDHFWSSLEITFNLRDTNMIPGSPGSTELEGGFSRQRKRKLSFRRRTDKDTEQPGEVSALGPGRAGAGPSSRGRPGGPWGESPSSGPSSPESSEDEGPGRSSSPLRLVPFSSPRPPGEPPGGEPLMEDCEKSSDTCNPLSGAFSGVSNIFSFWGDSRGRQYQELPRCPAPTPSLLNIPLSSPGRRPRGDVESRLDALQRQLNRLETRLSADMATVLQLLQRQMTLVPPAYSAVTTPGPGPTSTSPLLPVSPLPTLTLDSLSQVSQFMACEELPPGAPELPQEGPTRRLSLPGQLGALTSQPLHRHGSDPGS
compound,measurement,setting,value
"CCCC[C@@H]1OC(=O)c2ccccc21 [(S)-NBP, (S)-butylphthalide]","Saturated solubility in H2O, Mean",[1],540 µg/mL
same,AUC(0-t),[2],32828.9 ng·h/mL and 40061.1 ng·h/mL and 34160.8 ng·h/mL
same,AUC(0-∞),[2],32988.3 ng·h/mL and 40153.8 ng·h/mL and 34287.8 ng·h/mL
same,Cl,[2],12.631 mL/min/kg and 10.377 mL/min/kg and 12.152 mL/min/kg
same,Cmax,[2],52.5136 µg/mL and 69.7952 µg/mL and 65.7002 µg/mL
same,Vz,[2],3.704 L/kg and 2.6838 L/kg and 3.6105 L/kg
same,IC50,[3],1290 ± 110 µM
same,Concentration in brain tissue (single rats),[4]; [9],556.35 ng/g and 627.76 ng/g and 633.25 ng/g
same,Concentration in brain tissue (single rats),[4]; [10],131.66 ng/g and 119.84 ng/g and 388.42* ng/g
same,Concentration in brain tissue (single rats),[4]; [11],27.06 ng/g and 30.85 ng/g and 51.78 ng/g
same,Passage through the blood-brain barrier,[4]; detected in rat brain tissue after iv I1s,could all pass through the blood-brain barrier
same,"Concentration in brain tissue, Mean",[5]; [9],605.79 ng/g
same,"Concentration in brain tissue, Mean",[5]; [10],125.75 ng/g
same,"Concentration in brain tissue, Mean",[5]; [11],36.56 ng/g
same,Dry weight of thrombus,[6]; 2 h after last dose,7.44 ± 0.37
same,Wet weight of thrombus,[6]; 2 h after last dose,24.18 ± 1.02
same,Inhibition rate (dry weight of thrombus),[6]; vs model group,25.95^## %
same,Inhibition rate (wet weight of thrombus),[6]; vs model group,33.24^## %
same,inhibition rate of hERG potassium channel at the maximum concentration,[7],41.45%
same,Cerebral edema,MCAO rats,4.45 ± 4.58%
same,Infarct volume,MCAO rats,14.18 ± 2.69%
same,Inhibition rate of cerebral edema,MCAO rats,72.28%
same,Inhibition rate of infarct volume,MCAO rats,66.12%
same,IC50,[8],500 ± 40 µM
